From patent US12268666B2, “Spray-dried dispersions, formulations, and polymorphs of (S)-5-amino-3-(4-((5-fluoro-2-methoxybenzamido)methyl)phenyl)-1-(1,1,1-trifluoropropan-2-yl)-1H-pyrazole-4-carboxamide” (Loxo Oncology, Inc., priority 2018, dated 2025)

How the values were obtained:
[1] = molecular target: T1, BRK (Homo sapiens, UniProt Q13882); assay: Kinase selectivity, radiolabeled ATP activity assay; assay type: biochemical
T1 construct: purchased Reaction Biology
Description: (§1) Each assay is performed at an ATP concentration close to the Km for each enzyme. […] BRK, CSK, ERBB4, FYN, MEK1, MEK2, TXK, and YES1 The inhibitory activity of the compound of Formula I on the enzymatic activity of these kinases and TEC is determined using a radiolabeled ATP activity assay conducted with an ATP concentration near the ATP Km for each enzyme. After co-incubation with a serial dilution of the compound of Formula I, the quantity of ^33P incorporated into a peptide substrate is measured and the data analyzed using standard curve fitting methods.

[2] = molecular target: T2, CSK (Homo sapiens, UniProt P41240); assay: as above; assay type: biochemical
T2 construct: purchased Reaction Biology
T2 sequence (P41240 whole entry): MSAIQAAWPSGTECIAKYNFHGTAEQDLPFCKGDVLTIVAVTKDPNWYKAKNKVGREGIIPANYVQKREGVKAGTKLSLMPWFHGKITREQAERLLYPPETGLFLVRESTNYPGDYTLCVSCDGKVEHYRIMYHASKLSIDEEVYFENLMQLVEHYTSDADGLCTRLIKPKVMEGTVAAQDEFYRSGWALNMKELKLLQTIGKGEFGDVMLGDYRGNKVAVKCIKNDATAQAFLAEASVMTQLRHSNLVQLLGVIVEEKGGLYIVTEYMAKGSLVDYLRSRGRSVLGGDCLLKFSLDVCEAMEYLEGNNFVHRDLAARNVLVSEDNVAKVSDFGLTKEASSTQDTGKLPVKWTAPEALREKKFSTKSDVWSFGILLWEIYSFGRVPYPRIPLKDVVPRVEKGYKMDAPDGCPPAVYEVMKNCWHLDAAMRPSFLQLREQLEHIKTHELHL
Description: as §1

[3] = molecular target: T3, ERBB4 (Homo sapiens, UniProt Q15303); assay: as above; assay type: biochemical
T3 construct: purchased Reaction Biology
T3 sequence (Q15303 26-1308): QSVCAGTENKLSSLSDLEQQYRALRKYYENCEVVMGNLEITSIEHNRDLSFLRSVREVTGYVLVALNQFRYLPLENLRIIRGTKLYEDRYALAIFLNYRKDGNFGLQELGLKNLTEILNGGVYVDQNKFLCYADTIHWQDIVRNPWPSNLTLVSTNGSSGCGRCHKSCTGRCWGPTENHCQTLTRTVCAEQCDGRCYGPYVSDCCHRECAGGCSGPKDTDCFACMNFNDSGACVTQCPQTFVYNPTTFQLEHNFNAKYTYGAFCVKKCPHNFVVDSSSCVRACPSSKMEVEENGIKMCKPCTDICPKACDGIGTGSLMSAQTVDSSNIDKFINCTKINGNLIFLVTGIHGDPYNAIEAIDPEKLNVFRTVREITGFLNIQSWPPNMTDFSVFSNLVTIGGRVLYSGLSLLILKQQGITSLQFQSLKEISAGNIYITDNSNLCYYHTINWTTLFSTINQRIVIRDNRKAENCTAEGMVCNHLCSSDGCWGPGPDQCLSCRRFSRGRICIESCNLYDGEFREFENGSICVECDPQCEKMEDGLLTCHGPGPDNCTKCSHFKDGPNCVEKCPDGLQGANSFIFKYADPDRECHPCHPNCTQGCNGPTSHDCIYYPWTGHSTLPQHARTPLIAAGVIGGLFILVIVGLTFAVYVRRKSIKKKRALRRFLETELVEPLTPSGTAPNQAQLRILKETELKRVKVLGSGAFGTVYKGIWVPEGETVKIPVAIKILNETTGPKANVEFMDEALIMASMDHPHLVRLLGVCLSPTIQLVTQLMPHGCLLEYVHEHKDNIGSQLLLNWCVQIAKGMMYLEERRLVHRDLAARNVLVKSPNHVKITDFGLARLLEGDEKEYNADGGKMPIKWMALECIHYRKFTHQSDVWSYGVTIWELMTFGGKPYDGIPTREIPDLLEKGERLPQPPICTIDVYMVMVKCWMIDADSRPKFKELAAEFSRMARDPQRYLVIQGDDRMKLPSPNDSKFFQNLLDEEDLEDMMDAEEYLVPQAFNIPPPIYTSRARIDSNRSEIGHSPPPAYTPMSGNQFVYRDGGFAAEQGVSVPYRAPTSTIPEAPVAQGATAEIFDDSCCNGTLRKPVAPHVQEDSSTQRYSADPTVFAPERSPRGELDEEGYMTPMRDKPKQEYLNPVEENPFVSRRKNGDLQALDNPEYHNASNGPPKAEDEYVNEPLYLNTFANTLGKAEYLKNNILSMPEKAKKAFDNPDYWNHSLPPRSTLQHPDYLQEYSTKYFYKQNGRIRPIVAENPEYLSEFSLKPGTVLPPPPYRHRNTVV
Description: as §1

[4] = molecular target: T4, FYN (Homo sapiens, UniProt P06241); assay: as above; assay type: biochemical
T4 construct: purchased Reaction Biology
T4 sequence (P06241 whole entry): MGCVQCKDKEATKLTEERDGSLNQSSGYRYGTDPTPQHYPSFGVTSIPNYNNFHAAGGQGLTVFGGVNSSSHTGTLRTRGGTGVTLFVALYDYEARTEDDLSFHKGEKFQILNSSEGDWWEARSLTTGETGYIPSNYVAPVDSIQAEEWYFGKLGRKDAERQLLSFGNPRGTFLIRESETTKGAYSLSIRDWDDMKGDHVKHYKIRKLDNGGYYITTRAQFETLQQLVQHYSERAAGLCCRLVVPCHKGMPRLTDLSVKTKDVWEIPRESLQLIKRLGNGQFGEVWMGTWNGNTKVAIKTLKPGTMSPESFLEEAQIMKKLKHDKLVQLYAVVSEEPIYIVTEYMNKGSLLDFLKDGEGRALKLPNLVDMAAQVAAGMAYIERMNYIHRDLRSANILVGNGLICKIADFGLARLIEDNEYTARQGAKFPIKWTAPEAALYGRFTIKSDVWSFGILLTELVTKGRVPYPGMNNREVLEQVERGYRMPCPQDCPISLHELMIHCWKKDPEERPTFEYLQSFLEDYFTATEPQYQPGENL
Description: as §1

[5] = molecular target: T5, MEK1 (Homo sapiens, UniProt Q02750); assay: as above; assay type: biochemical
T5 construct: purchased Reaction Biology
T5 sequence (Q02750 whole entry): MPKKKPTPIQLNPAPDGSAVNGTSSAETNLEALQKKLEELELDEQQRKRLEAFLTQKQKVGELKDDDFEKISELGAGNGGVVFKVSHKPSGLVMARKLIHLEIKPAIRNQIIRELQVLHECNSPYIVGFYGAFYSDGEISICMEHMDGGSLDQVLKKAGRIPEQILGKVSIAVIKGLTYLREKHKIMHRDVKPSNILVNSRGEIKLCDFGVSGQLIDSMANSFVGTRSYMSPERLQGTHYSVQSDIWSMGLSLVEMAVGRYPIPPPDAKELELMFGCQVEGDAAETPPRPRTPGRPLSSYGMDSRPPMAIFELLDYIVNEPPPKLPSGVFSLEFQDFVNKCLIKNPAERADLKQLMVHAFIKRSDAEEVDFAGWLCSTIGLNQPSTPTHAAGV
Description: as §1

[6] = molecular target: T6, MEK2 (Homo sapiens, UniProt P36507); assay: as above; assay type: biochemical
T6 construct: purchased Reaction Biology
T6 sequence (P36507 whole entry): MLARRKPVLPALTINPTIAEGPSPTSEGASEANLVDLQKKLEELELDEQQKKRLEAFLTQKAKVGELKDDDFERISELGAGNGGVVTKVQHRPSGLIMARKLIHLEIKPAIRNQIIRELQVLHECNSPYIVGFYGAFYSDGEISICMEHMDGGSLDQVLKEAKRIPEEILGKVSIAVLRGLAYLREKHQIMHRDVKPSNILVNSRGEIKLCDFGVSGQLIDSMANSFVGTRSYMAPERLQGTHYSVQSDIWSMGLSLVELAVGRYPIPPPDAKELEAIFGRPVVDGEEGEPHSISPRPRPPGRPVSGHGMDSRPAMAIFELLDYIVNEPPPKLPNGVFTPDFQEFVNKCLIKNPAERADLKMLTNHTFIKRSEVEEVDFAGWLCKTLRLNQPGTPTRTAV
Description: as §1

[7] = molecular target: TEC (Homo sapiens, UniProt P42680); assay: as above; assay type: biochemical; conditions: ATP near Km
Description: as §1

[8] = molecular target: T7, TXK (Homo sapiens, UniProt P42681); assay: as above; assay type: biochemical
T7 construct: purchased Reaction Biology
T7 sequence (P42681 whole entry): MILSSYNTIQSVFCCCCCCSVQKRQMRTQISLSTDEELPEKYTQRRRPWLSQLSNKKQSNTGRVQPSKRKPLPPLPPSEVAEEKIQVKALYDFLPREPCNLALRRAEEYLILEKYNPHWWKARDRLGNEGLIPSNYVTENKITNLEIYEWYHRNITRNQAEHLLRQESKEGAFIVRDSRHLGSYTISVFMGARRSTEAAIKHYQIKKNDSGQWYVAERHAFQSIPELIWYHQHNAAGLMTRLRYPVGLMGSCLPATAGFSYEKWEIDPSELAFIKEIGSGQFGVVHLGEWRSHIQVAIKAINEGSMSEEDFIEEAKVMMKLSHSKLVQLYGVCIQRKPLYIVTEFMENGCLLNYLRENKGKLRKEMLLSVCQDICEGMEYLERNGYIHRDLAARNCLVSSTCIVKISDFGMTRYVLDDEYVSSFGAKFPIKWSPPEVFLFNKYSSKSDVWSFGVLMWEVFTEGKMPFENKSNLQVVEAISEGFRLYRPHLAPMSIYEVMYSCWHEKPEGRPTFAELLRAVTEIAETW
Description: as §1

[9] = molecular target: T8, YES1 (Homo sapiens, UniProt P07947); assay: as above; assay type: biochemical
T8 construct: purchased Reaction Biology
T8 sequence (P07947 whole entry): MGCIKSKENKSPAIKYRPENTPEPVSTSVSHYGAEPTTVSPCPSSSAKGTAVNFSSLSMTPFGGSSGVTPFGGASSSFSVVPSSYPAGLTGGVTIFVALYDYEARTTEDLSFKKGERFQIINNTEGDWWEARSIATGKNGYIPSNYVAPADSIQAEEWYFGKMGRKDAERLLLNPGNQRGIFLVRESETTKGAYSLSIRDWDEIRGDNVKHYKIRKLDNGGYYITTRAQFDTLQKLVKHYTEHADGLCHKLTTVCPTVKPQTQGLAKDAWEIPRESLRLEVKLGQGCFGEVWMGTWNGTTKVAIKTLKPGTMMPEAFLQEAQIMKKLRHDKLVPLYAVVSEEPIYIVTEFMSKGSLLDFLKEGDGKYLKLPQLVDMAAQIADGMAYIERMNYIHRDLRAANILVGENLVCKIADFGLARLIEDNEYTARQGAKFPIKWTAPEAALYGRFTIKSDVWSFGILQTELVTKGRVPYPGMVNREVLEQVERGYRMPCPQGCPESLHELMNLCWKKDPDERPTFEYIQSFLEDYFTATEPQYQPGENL
Description: as §1

[10] = tested on: OCI-Ly10 human B-cell lymphoma cell line xenograft; assay: Tumor growth inhibition in OCI-Ly10 xenografts; assay type: in vivo, male NOD SCID mice; conditions: for tumor growth during the dosing period: oral, 28 days
Description: A total of 65 male NOD-SCIO mice are used for the study. At the start of the study the animals are aged 6-8 weeks and weighed approximately 21-27 g. Animals are housed in IVC cages (up to 5 per cage) with individual mice identified by tail marking. All animals are allowed free access to a standard certified commercial diet and sanitized water during the study. The holding room is maintained under standard conditions: 20-24° C., 40-70% humidity and a 12 hr light/dark cycle. Animals are randomly assigned to treatment groups. OCI-Lyl0 cells are implanted subcutaneously into the flanks of male NOD SCID mice and allowed to grow to a volume of approximately 150-200 mm^3. […] The formulation used is 0.5% hydroxypropyl methylcellulose. The dosing volume is 10 mL/kg. An individual animal's dose is calculated from the bodyweight recorded on the day of dosing. Animals are dosed for 28 days. Bodyweight and health observation of animals is recorded daily for the duration of dosing.
Tumor volume is measured three times per week during the study.

[11] = 1.0 μM compound, ATP close to Km, read-out: Percent of Control (POC)

T1 sequence (Q13882 whole entry): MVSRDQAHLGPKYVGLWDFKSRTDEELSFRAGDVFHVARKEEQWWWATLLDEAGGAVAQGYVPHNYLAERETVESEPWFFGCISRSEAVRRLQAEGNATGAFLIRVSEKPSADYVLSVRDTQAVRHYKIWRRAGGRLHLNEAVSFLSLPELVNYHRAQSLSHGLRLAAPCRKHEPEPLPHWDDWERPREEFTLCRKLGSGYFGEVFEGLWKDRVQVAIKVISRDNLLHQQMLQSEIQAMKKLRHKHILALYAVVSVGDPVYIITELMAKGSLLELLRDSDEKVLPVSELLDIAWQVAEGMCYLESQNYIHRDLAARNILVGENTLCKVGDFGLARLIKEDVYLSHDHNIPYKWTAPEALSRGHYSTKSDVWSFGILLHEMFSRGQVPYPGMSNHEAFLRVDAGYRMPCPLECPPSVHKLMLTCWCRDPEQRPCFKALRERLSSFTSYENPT

COc1ccc(F)cc1C(=O)NCc1ccc(-c2nn([C@@H](C)C(F)(F)F)c(N)c2C(N)=O)cc1 [compound of Formula I, (S)-5-amino-3-(4-((5-fluoro-2-methoxybenzamido)methyl)phenyl)-1-(1,1,1-trifluoropropan-2-yl)-1H-pyrazole-4-carboxamide]
remaining activity at 1 µM [1, 11]: < 50%
IC50 ([1]; ATP near Km): 54.2 nM
remaining activity at 1 µM [2, 11]: < 50%
IC50 ([2]; ATP near Km): 552 nM
remaining activity at 1 µM [3, 11]: < 50%
IC50 ([3]; ATP near Km): 13.2 nM
remaining activity at 1 µM [4, 11]: < 50%
IC50 ([4]; ATP near Km): 1710 nM
remaining activity at 1 µM [5, 11]: < 50%
IC50 ([5]; ATP near Km): 147 nM
remaining activity at 1 µM [6, 11]: < 50%
IC50 ([6]; ATP near Km): 82.7 nM
IC50 [7]: 1230 nM
remaining activity at 1 µM [8, 11]: < 50%
IC50 ([8]; ATP near Km): 209 nM
remaining activity at 1 µM [9, 11]: < 50%
IC50 ([9]; ATP near Km): 157 nM
tumor growth during the dosing period ([10]; 10 mg/kg BID): inhibition of tumor growth
tumor size compared with ibrutinib-treated animals ([10]; 10 mg/kg BID, p=0.0008, ANOVA with Tukey post-hoc test): significantly smaller than those from animals treated with ibrutinib
tumor growth during the dosing period ([10]; 50 mg/kg BID): inhibition of tumor growth
tumor size compared with ibrutinib-treated animals ([10]; 50 mg/kg BID, p<0.0001, ANOVA with Tukey post-hoc test): significantly smaller than those from animals treated with ibrutinib
tumor growth after dosing had stopped ([10]; after the 28-day dosing period): maintained even after dosing had stopped
